This assay in a line: Inhibition of human RANKL-induced osteoclastogenesis in RANKL cultured mouse bone marrow cells assessed as reduction in RANKL/M-CSF-induced TRAP activity preincubated with RANKL for 1 hr followed by cell addition and subsequent media replenishment every 48 hrs for 4 days.

In general, pIC50 refers to the IC50 on a negative log10 scale, so that one unit is a factor of ten.

The structures appear in SMILES notation. pIC50: −log10 of the molar value.

`Cc1cc2occ(CN(C)CCN(C)Cc3cn(-c4cccc(C(F)(F)F)c4)c4ccccc34)c(=O)c2cc1C`: the pIC50 is 6.00.
Under `CN(CCN(C)Cc1cn(S(=O)(=O)c2ccccc2)c2ccccc12)Cc1coc2ccccc2c1=O` stands 5.60.
Under `CN(CCN(C)C(=O)c1cn(-c2cccc([N+](=O)[O-])c2)c2ccccc12)C(=O)c1coc2ccccc2c1=O` stands 5.73.
As for `CN(CCN(C)C(=O)c1cn(S(=O)(=O)c2ccccc2)c2ccccc12)C(=O)c1coc2ccccc2c1=O`, the negative-log IC50 (pIC50) was 5.54.
Under `CN(CCN(C)C(=O)c1cn(S(=O)(=O)c2cccc([N+](=O)[O-])c2)c2ccccc12)C(=O)c1coc2ccccc2c1=O` stands 5.29.
Under `CN(CCN(C)S(=O)(=O)c1ccccc1)C(=O)c1cn(S(=O)(=O)c2cccc([N+](=O)[O-])c2)c2ccccc12` stands 5.57.
As for `CN(CCN(C)S(=O)(=O)c1ccc(C#N)cc1)C(=O)c1cn(S(=O)(=O)c2cccc([N+](=O)[O-])c2)c2ccccc12`, the negative-log IC50 (pIC50) was 5.70.
Then `CN(CCN(C)S(=O)(=O)c1cccc([N+](=O)[O-])c1)C(=O)c1cn(S(=O)(=O)c2cccc([N+](=O)[O-])c2)c2ccccc12`, with 5.72.
As for `O=C(c1cn(S(=O)(=O)c2cccc([N+](=O)[O-])c2)c2ccccc12)N1CCN(S(=O)(=O)c2ccccc2)CC1`, the negative logarithm of the IC50 (pIC50) is 5.85.
Under `N#Cc1ccc(S(=O)(=O)N2CCN(C(=O)c3cn(S(=O)(=O)c4cccc([N+](=O)[O-])c4)c4ccccc34)CC2)cc1` stands 5.29; under `O=C(c1cn(S(=O)(=O)c2cccc([N+](=O)[O-])c2)c2ccccc12)N1CCN(S(=O)(=O)c2cccc([N+](=O)[O-])c2)CC1`, 5.19.

For the origin of these results see BindingDB's records for doi:10.1021/acs.jmedchem.0c01316 (Agricultural University of Athens, 2020).
